Experimental data from patent publication US20080319024A1, “Rosiglitazone Phosphate and Polymorphic Forms” (priority 2004, published 2008).

Experiments:
[1] = Exposure of Form A to different relative humidities, water content by Karl Fischer; assay type: physicochemical
Description: The water content is determined by the Karl Fischer method.
5-[[4-[2-(methyl-2-pyridinylamino)ethoxy]phenyl]methyl]-2,4-thiazolidinedione phosphate hydrate in its polymorphic Form A was exposed to different relative humidities for about 24 hours.

[2] = Stress test at 80° C. in a closed vial, degradation determined by HPLC; assay type: physicochemical
[3] = comparator rosiglitazone maleate

SMILES	Water content (Karl Fisher) ([1]; 45% relative humidity, about 24 hours)	Water content (Karl Fisher) ([1]; 63% relative humidity, about 24 hours)	Water content (Karl Fisher) ([1]; 86% relative humidity, about 24 hours)	Water content (Karl Fisher) ([1]; Initial, before exposure to humidity)	Stability (general statement) [2]	Degradation after stress test as determined by HPLC ([2]; 80° C., about 160 hours, closed vial)	Solubility in water compared to rosiglitazone maleate [3]
CN(CCOc1ccc(CC2SC(=O)NC2=O)cc1)c1ccccn1.O=P(O)(O)O (stereo not shown) [Form A, 5-[[4-[2-(methyl-2-pyridinylamino)ethoxy]phenyl]methyl]-2,4-thiazolidinedione phosphate]	3.42 % w/w	3.37 % w/w	3.58 % w/w	2.8 % w/w	good stability	no degradation	
CN(CCOc1ccc(CC2SC(=O)NC2=O)cc1)c1ccccn1.O=P(O)(O)O (stereo not shown) [Form E, 5-[[4-[2-(methyl-2-pyridinylamino)ethoxy]phenyl]methyl]-2,4-thiazolidinedione phosphate]							comparable or even more expressed
